pIC50: −log10 of the molar value. Some results are limits rather than exact numbers.

The subject of experiment [1] is Aβ42. The experiment can be described thus: In vivo efficacy: brain soluble Aβ42 in non-transgenic rodents (MSD electrochemiluminescence multiplex). The arrangement: species or system mouse. As to conditions: Mus musculus, po, 4 h, dose 30 mg/kg oral dosing, brain soluble fraction, animals sacrificed after 4 h, untreated animals (Ctrl) set at 100, read-out: Aβ42 (% vs Ctrl)_Mean. The text has this: To determine whether acute administration of an Aβ42 lowering agent would reduce Aβ42 levels in vivo, non-transgenic rodents, e.g. mice or rats were used. Animals treated with the Aβ42 lowering agent were examined and compared to those untreated or treated with vehicle and brain levels of soluble Aβ42, Aβ40, Aβ38, and Aβ37 were quantitated by Meso Scale Discovery's (MSD) electrochemiluminescence detection technology. Treatment periods varied from hours (h) to days and were adjusted based on the results of the Aβ42 lowering once a time course of onset of effect could be established.
A typical protocol for measuring Aβ42 lowering in vivo is shown but it is only one of many variations that could be used to optimize the levels of detectable Aβ. For example, Aβ42 lowering compounds were formulated in 20% of Captisol® (a sulfo-butyl ether of β-cyclodextrin) in water or 20% hydroxypropyl βcyclodextrin. The Aβ42 lowering agents were administered as a single oral dose or by any acceptable route of administration to overnight fasted animals. After 4 h, the animals were sacrificed and Aβ42 levels were analysed.
Blood was collected by decapitation and exsanguinations in EDTA-treated collection tubes. Blood was centrifuged at 1900 g for 10 minutes (min) at 4° C. and the plasma recovered and flash frozen for later analysis. The brain was removed from the cranium and hindbrain. The cerebellum was removed and the left and right hemisphere were separated. The left hemisphere was stored at −18° C. for quantitative analysis of test compound levels. The right hemisphere was rinsed with phosphate-buffered saline (PBS) buffer and immediately frozen on dry ice and stored at −80° C. until homogenization for biochemical assays.
Mouse brains from non-transgenic animals were resuspended in 8 volumes of 0.4% DEA (diethylamine)/50 mM NaCl containing protease inhibitors (Roche-11873580001 or 04693159001) per gram of tissue, e.g. for 0.158 g brain, add 1.264 ml of 0.4% DEA. All samples were homogenized in the FastPrep-24 system (MP Biomedicals) using lysing matrix D (MPBio #6913-100) at 6 m/s for 20 seconds. Homogenates were centrifuged at 20800×g for 5 min and supernatants collected. Supernatants were centrifuged at 221.300×g for 50 min. The resulting high speed supernatants were then transferred to fresh eppendorf tubes. Nine parts of supernatant were neutralized with 1 part 0.5 M Tris-HCl pH 6.8 and used to quantify Aβ.
To quantify the amount of Aβ42, Aβ40, Aβ38, and Aβ37 in the soluble fraction of the brain homogenates, simultaneous specific detection of Aβ42, Aβ40, Aβ38, and Aβ37 was performed using MSD's electro-chemiluminescence multiplex detection technology. In this assay purified monoclonal antibodies specific for Abeta37 (JRD/Aβ37/3), Abeta38 (J&JPRD/Aβ38/5), Abeta40 (JRF/cAβ40/28), and Abeta42 (JRF/cAβ42/26) were coated on MSD 4-plex plates. Briefly, the standards (a dilution of synthetic Aβ42, Aβ40, Aβ38, and Aβ37) were prepared in 1.5 ml Eppendorf tube in Ultraculture, with final concentrations ranging from 10000 to 0.3 pg/m. The samples and standards were co-incubated with Sulfo-tag labelled JRF/rAβ/2 antibody to the N-terminus of Aβ as detector antibody. 50 μl of conjugate/sample or conjugate/standards mixtures were then added to the antibody-coated plate. The plate was allowed to incubate overnight at 4° C. in order to allow formation of the antibody-amyloid complex. Following this incubation and subsequent wash steps the assay was finished by adding read buffer according to the manufacturer's instructions (Meso Scale Discovery, Gaitherburg, Md.).
The SULFO-TAG emits light upon electrochemical stimulation initiated at the electrode. MSD Sector instrument SI6000 was used for signal read-out.
In this model a Aβ42 lowering compared to untreated animals would be advantageous, in particular a Aβ42 lowering with at least 10%, more in particular a Aβ42 lowering with at least 20%. […]

Experiment [2] concerns the target T1, γ-secretase (Homo sapiens, UniProt P49768).
T1 construct: endogenous in cells; host or cells: SKNBE2 human neuroblastoma cells (carrying hAPP 695 wild type as substrate)
The experiment is described as follows: Screening for γ-secretase-modulating activity: Aβ42 in supernatant of SKNBE2 cells carrying hAPP 695 wild type (Alphalisa). Particulars: SKNBE2 human neuroblastoma cells carrying hAPP 695 wild type, overnight incubation, Aβ42 in cell supernatant. The experiment is classed as cell-based. Summed up: (§1)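 SKNBE2 neuroblastoma cells expressing wild-type hAPP 695 plated at 10^4 cells/well in Ultraculture with test compound, incubated overnight at 37° C. Aβ42 (C-terminal/N-terminal antibody pair) and Aβtotal (N-terminal/4G8 pair) in supernatant quantified by AlphaLISA. IC50 from 4-parameter fit of percent of compound-free control.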
(In general: Alpha assays give light when donor and acceptor beads are brought close together.)

In experiment [3] the target is T1, γ-secretase. The experiment is described as follows: Screening for γ-secretase-modulating activity: Aβtotal in supernatant of SKNBE2 cells carrying hAPP 695 wild type (Alphalisa). In kind it is cell-based. Particulars: SKNBE2 human neuroblastoma cells carrying hAPP 695 wild type, overnight incubation, Aβtotal in cell supernatant. The essentials: as §1

What is called pIC50 is the IC50 on a negative log10 scale, so that one unit is a factor of ten. Read a high pIC50 as a small IC50. Consider `Cc1cn(-c2ccc3n(c2=O)C[C@@H](C)N(Cc2cc(OC(F)(F)F)cc(C(F)(F)F)c2)C3=O)cn1` [compound 140], for which the response vs control in vivo at 30 mg/kg in experiment [1] amounted to 42%. In addition, the pIC50 in experiment [2] was 7.22; in experiment [3] it was less than 5.00.

Regarding `Cc1cn(-c2ccc3n(c2=O)C[C@@H](C)N(Cc2cc(C4CC4)cc(C(F)(F)F)c2)C3=O)cn1` [compound 116], the response vs control in vivo at 30 mg/kg in experiment [1] is 75%. For the same molecule, the pIC50 is 7.10 in experiment [2] and less than 5.00 in experiment [3].

As to `CCOc1cc(C(C)N2C(=O)c3ccc(-n4cnc(C)c4)c(=O)n3C[C@H]2C)cc(C(F)(F)F)c1` (single isomer, unassigned) [compound 143], the response vs control in vivo at 30 mg/kg in experiment [1] worked out at 123%. Further, the pIC50 was 7.22 in experiment [2] and less than 5.00 in experiment [3].

As to `Cc1cn(-c2ccc3n(c2=O)C[C@@H](C)N(Cc2cc(OCC(F)(F)F)cc(C(F)(F)F)c2)C3=O)cn1` [compound 166], in experiment [1], the response vs control in vivo at 30 mg/kg turned out to be 64%. Besides, the pIC50 in experiment [2] was 7.30; in experiment [3], less than 5.00.

Turning to `Cc1cn(-c2ccc3n(c2=O)CC(C)N(C(C)c2cc(C(F)(F)F)cc(C(F)(F)F)c2)C3=O)cn1.Cl` (single isomer, unassigned) [compound 111], the response vs control in vivo at 30 mg/kg in experiment [1] is 35%. The pIC50 was 7.15 in experiment [2] and less than 5.00 in experiment [3].

`Cc1cn(-c2ccc3n(c2=O)CC(C)N(Cc2cc(OCC4CC4)cc(C(F)(F)F)c2)C3=O)cn1.Cl` (stereo not drawn) [compound 6]: the response vs control in vivo at 30 mg/kg in experiment [1] was 73%. The pIC50 was 7.15 in experiment [2] and less than 5.00 in experiment [3].

On to `Cc1cn(-c2ccc3n(c2=O)C[C@@H](C)N(Cc2cc(N4CCOC(C(F)(F)F)C4)cc(C(F)(F)F)c2)C3=O)cn1` (mixture of isomers) [compound 153], for which the response vs control in vivo at 30 mg/kg in experiment [1] came out at 100%. Also, the values for the pIC50 in experiment [2] and in experiment [3] were 7.22 and less than 5.00, respectively.

Turning to `Cc1cn(-c2ccc3n(c2=O)CCN(C(C)c2c[nH]c4cc(F)c(Cl)cc24)C3=O)cn1` (single isomer, unassigned) [compound 183], the response vs control in vivo at 30 mg/kg in experiment [1] was 97%. Also, the pIC50 in experiment [2] is 7.52; in experiment [3], 5.17.

With `Cc1cn(-c2ccc3n(c2=O)CC(C)N(C(C)c2c[nH]c4c(F)cc(Cl)cc24)C3=O)cn1` (single isomer, unassigned) [compound 219], the response vs control in vivo at 30 mg/kg in experiment [1] amounted to 76%. Also, the pIC50 was 7.70 in experiment [2] and 5.51 in experiment [3].

On to `Cc1cn(-c2ccc3n(c2=O)C[C@@H](C)N(Cc2cc(N4CCCC4)ccc2Cl)C3=O)cn1` [compound 82], for which the response vs control in vivo at 30 mg/kg in experiment [1] came to 103%. In addition, the figures for the pIC50 in experiment [2] and in experiment [3] were 6.96 and less than 5.00, respectively.

Consider `Cc1cn(-c2ccc3n(c2=O)C[C@@H](C)N(Cc2cc(N4CCC(C)CC4)ccc2Cl)C3=O)cn1` [compound 80], for which, in experiment [1], the response vs control in vivo at 30 mg/kg was determined as 148%. For the same molecule, the pIC50 in experiment [2] was 7.00; in experiment [3], less than 5.00.

For `COc1cccc(CN2C(=O)c3ccc(-n4cnc(C)c4)c(=O)n3C[C@H]2C)c1` [compound 132], the response vs control in vivo at 30 mg/kg in experiment [1] was determined as 104%. Moreover, the figures for the pIC50 in experiment [2] and in experiment [3] were 5.67 and less than 5.00, respectively.

Source of the values: patent US20150141411A1, “SUBSTITUTED 3,4-DIHYDRO-2H-PYRIDO[1,2-A]PYRAZINE-1,6-DIONE DERIVATIVES USEFUL FOR THE TREATMENT OF (INTER ALIA) ALZHEIMER'S DISEASE” (Janssen Pharmaceuticals, Inc., priority 2012, published 2015).
